The results in this text go back to ChEMBL document CHEMBL1125867 (J Med Chem, 1991).

One experiment concerns the target T1, Dihydrofolate reductase (Homo sapiens, UniProt P00374).
T1 sequence (P00374 whole entry): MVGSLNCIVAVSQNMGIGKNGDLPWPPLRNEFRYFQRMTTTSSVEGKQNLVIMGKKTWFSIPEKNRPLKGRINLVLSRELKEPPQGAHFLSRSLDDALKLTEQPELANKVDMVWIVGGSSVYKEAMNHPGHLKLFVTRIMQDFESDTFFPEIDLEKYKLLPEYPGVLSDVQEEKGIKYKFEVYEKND

A short description of experiment [1]: Compound was evaluated for cell growth inhibition of human (WI-L2) leukemic cells. To be noted: WIL2. The class given is functional, cell-based.

Description for Dihydrofolate reductase: Compound was evaluated for Dihydrofolate Reductase (DHFR) inhibition

In general, IC50 refers to the concentration that inhibits the measured activity by half. High values mean weaker potency, low ones greater potency. With `Cc1nc(N)c2nc(CN(C)c3ccc(C(=O)NC(CCC(=O)O)C(=O)O)cc3)cnc2n1` (stereo not drawn), the IC50 at Dihydrofolate reductase is greater than 20 µM.

On Dihydrofolate reductase, `CN(Cc1cnc2ncnc(N)c2n1)c1ccc(C(=O)NC(CCC(=O)O)C(=O)O)cc1` (stereo not drawn) came in with a half-maximal inhibitory concentration (IC50) of 6 µM.

In the case of `Nc1nc(N)c2nc(CNc3ccc(C(=O)N[C@@H](CCC(=O)O)C(=O)O)cc3)cnc2n1` [AMINOPTERIN], the IC50 in experiment [1] came to 0.007 µM.
